Data as given in paper PMC9520948, “Moonlighting glyceraldehyde-3-phosphate dehydrogenase (GAPDH) protein of Lactobacillus gasseri attenuates allergic asthma via immunometabolic change in macrophages” (Journal of Biomedical Science, 2022).

What was measured:
[1] = molecular target: T1, human plasminogen (Homo sapiens, UniProt P00747); experiment: competitive solid-phase binding assay (ELISA), displacement of GAPDH; settings: competition with 125 ng His-tagged bacterial GAPDH; EACA 1.25 to 10 mM; lysine analog
T1 construct: gene PLG; commercial (BioVision), 1 microgram coated on polystyrene plate
T1 sequence (P00747 20-810): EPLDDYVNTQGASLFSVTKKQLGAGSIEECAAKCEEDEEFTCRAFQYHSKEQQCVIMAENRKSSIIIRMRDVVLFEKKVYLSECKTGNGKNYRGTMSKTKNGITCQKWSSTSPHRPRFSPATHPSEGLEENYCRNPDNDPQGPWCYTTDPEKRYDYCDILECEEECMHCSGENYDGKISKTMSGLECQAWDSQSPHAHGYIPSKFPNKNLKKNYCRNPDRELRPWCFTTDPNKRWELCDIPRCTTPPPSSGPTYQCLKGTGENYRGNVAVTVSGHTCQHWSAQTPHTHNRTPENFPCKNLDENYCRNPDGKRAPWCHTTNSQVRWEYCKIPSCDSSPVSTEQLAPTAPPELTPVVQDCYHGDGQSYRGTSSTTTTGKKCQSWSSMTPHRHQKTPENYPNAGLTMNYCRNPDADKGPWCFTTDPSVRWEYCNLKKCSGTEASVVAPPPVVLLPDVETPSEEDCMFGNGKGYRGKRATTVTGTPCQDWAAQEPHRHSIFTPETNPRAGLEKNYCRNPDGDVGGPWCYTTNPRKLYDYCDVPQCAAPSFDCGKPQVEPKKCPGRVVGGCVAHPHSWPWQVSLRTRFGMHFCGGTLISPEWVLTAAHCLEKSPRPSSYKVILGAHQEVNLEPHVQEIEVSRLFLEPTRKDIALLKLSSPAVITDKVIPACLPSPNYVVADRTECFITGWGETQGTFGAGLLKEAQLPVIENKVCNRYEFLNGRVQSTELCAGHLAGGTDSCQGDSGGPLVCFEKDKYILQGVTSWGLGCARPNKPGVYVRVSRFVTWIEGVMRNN

[2] = molecular target: T2, LGp40 (GAPDH of L. gasseri) (Lactobacillus gasseri, UniProt A0A1V3Y2M1); experiment: X-ray crystallography, […] A; settings: NAD-binding site, Asp38 hydrogen bonds; crystals at pH 6.5
T2 construct: gene gap; His6-tagged, pET21b, E. coli BL21(DE3), Ni-NTA then Q column; 37 kDa; tetramer through crystal symmetry

[3] = molecular target: LGp40, His-tagged recombinant glyceraldehyde-3-phosphate dehydrogenase (GAPDH) of Lactobacillus gasseri (Lactobacillus gasseri (BCRC14619)); experiment: crystal structure; X-ray, 1.88 A, space group I4(1)22; one LGp40 copy in the asymmetric unit, tetramer through crystal symmetry; crystals from 0.1 M sodium cacodylate pH 6.5, 16% w/v PEG 4000, 25 C

Question: With `NCCCCCC(=O)O` [EACA] as the compound, how does the “competitive solid-phase binding assay (ELISA), displacement of GAPDH” value [1] read?
Answer: a competitive binding assay using EACA, a lysine analog

Question: How did the “X-ray crystallography, 1.88 A” value [2] turn out when `NC(=O)c1ccc[n+]([C@@H]2O[C@H](COP(=O)(O)OP(=O)(O)OC[C@H]3O[C@@H](n4cnc5c(N)ncnc54)[C@H](O)[C@@H]3O)[C@@H](O)[C@H]2O)c1` [NAD^+] was run?
Answer: contributes two hydrogen-bond interactions with NAD^+ to provide stronger binding forces

Question: For “LGp40, His-tagged recombinant glyceraldehyde-3-phosphate dehydrogenase (GAPDH) of Lactobacillus gasseri (enzyme)”, which stoichiometry N [3] is on record?
Answer: 4
